Test results from US20220288004A1, “TREATMENT AND PREVENTION OF AGING RELATED-DISEASE AND/OR AGING BY THE INHIBITION OF SPHINGOLIPIDS” (ECOLE POLYTECHNIQUE FEDERALE DE LAUSANNE (EPFL), priority 2019, published 2022).
Entries after “also recorded” stand apart in the source; their conditions may differ.

How the values were obtained:
aged C57Bl/6JRj mice = experiment: Muscle function tests (treadmill, aerobic capacity, grip strength, rotarod, crossbar) in aged mice; type: in vivo, mouse; conditions: myriocin 5 months vs DMSO
Experimental: To examine whether a causal relationship could underlie the correlation between SphPC1 and muscle mass and function, it was tested whether inhibition of sphingolipid de novo biosynthesis pathway could protect against age-related muscle dysfunction. Aged (18-month-old) C57Bl/6JRj mice were treated for 5 months on chow diet with myriocin, a specific inhibitor of SPT, the first and rate-limiting enzyme of the sphingolipid de novo synthesis pathway, and whose expression in skeletal muscle was negatively correlated with muscular fitness in BXDs.
Animals. Young (2-month-old) and aged (18-month-old) C57Bl/6JRj mice were purchased from Janvier Labs. EchoMRI measuring the fat and lean body mass, were measured before and after the treatment. The dose of myriocin was 0.4 mg/kg/3 times a week. Myriocin (Enzo Life Sciences, Farmingdale, N.Y.) was first dissolved in DMSO which was then mixed with PBS so that each mouse received 1.5 μL DMSO per injection. Animals were fed on a standard chow diet. All animals were housed in micro-isolator cages in a room illuminated from 7:00 AM to 7:00 PM with ad libitum access to diet and water. All the animal experiments are authorized by animal license 2890.1 and 3341 in Canton of Vaud, Switzerland.
(§1) Endurance running test. The exercise regimen on a treadmill commenced at a speed of 9 cm/s. As the mice were aged, an inclination of 0 degrees was used. Mice were considered to be exhausted, and removed from the treadmill if they received 7 or more shocks (0.2 mA) per minute for two consecutive minutes. The distance traveled and time before exhaustion were registered as maximal running distance and time.
(§2) Grip strength. Muscle strength was assessed by grip strength test. The grip strength of each mouse was measured on a pulldown grid assembly connected to a grip strength meter (Columbus Instruments). The mouse was drawn along a straight line parallel to the grip, providing peak force. The experiment was repeated three times, and the highest value was included in the analysis.
(§3) Rotarod test. The rotarod test measures muscle strength, coordination, and endurance. Mice were left undisturbed in the room for 30 min. The speed of the rotating cylinder (rotarod) increased from 0 to 40 rpm in 5 min. Each mouse had 3 trials per day for 3 consecutive days. The latency and speed the mouse reached it passive rotation or fall from the rotor was recorded, and the latency and speed of the best trial of the second day is presented.
Crossbar test. Crossbar test assesses active balance through the ability to balance while walking along an elevated beam to reach a dark end side where they are able hide. Since all the mice were easily able to cross a squared (3 cm) beam, and a circular beam of diameter 1.5 cm was too difficult to them, the latency was recorded to cross a circular beam of 3 cm. The mice were trained for one day before the actual trial was recorded, and the average of the latency of three trials per mouse is presented.

mdx mice = experiment: Myriocin treatment of mdx mice (Duchenne muscular dystrophy model); type: in vivo, mouse
Experimental: Next the activity of sphingolipid synthesis was inhibited in a mouse model of Duchenne muscular dystrophy. Mdx, a dystrophin deficient mouse model, was treated with myriocin (0.4 mg/kg/3 times a week intraperitoneally) for 2 months. […] Furthermore, after downhill running, plasma levels of creatine kinase (CK) were lower in myriocin treated mice compared to controls (FIG. 8f).
as §1, §2, §3

[1] = myriocin 0.4 mg/kg 3 times a week intraperitoneally, 2 months

Structure (SMILES): CCCCCCC(=O)CCCCCCC=CCC(O)C(O)C(N)(CO)C(=O)O (stereo not shown) [myriocin, 2-Amino-3,4-dihydroxy-2-(hydroxymethyl)-14-oxoicos-6-enoic acid]
- aerobic capacity (maximal oxygen consumption) (aged C57Bl/6JRj mice): improved; also recorded: increased
- crossing of a beam (aged C57Bl/6JRj mice): faster crossing
- grip strength (aged C57Bl/6JRj mice): improved; also recorded: increased
- performance in the rotarod test (aged C57Bl/6JRj mice): improved performance
- running distance and time on a treadmill (aged C57Bl/6JRj mice): increased; also recorded: improved performance
- speed reached before falling off the rotarod (aged C57Bl/6JRj mice): higher speed
- plasma levels of creatine kinase (CK) (mdx mice; after downhill running, myriocin 2 months vs controls): lower
- grip strength (mdx mice; [1]): improved
- performance in rotarod test (mdx mice; [1]): improved performance
- performance in uphill running test (mdx mice; [1]): improved performance
